Experimental findings from patent US20250345329A1, “HETEROARYL DERIVATIVE COMPOUND AND USES THEREOF” (VORONOI, INC., priority 2022, published 2025) are described below.

Bounds are passed on as bounds.

In experiment [1] the test system is Ba/F3 expressing EGFR Del19/T790M/C797S mutations. Description: Inhibitory activity on proliferation of Ba/F3 cell overexpressing EGFR C797S (Cell Titer-Glo). The note with it: Mus musculus, BaF3; 72 hours treatment, cell growth rate vs control; read-out: Ba/F3 (EGFR DTC) GI50. The format is cell-based. Here is the method: <Experimental Example 2> Evaluation of Inhibitory Activity on Proliferation of Ba/F3 Cell Overexpressing EGFR C797S
The following experiments were performed to evaluate the inhibitory activity of the compounds according to the present invention on the proliferation of Ba/F3 expressing EGFR Del19/T790M/C797S mutations.
Ba/F3 cells were cultured in RPMI-1640 medium supplemented with 10% fetal bovine serum (FBS), and 3000 cells were seeded into each well of a white clear bottom 96 well plate (Corning) 24 hours prior to compound treatment. The compounds were diluted in dimethyl sulfoxide (3-fold dilution, total of 12 concentrations) and injected at 1 μl each so that the final concentration was […] to 5 μM. After 72 hours post treatment with compounds, living cells were reacted in a 37° C., CO2 incubator for […], followed by 10 minutes at room temperature using Cell Titer-Glo luminescent cell-viability reagent (Promega), and the luminescence intensity thereof was measured using a reader (SynergyNeo2, Biotek). The result values were calculated as a cell growth rate (%) compared to the control group. GI50 values were calculated using the GraphPad Prism version 8.4.3 (GraphPad software Inc., San Diego) program.
On the technique in general: ATP-based viability assays read luminescence as a measure of living cells.

The target in experiment [2] is T1, human EGFR (d746-750/T790M/C797S) (Homo sapiens, UniProt P00533, C797S/DEL746-750/T790M).
T1 construct: human EGFR (d746-750/T790M/C797S) (668-end, SignalChem); purchased SignalChem
T1 sequence (P00533 with tags, fused parts or gaps DEL746-750/T790M/C797S): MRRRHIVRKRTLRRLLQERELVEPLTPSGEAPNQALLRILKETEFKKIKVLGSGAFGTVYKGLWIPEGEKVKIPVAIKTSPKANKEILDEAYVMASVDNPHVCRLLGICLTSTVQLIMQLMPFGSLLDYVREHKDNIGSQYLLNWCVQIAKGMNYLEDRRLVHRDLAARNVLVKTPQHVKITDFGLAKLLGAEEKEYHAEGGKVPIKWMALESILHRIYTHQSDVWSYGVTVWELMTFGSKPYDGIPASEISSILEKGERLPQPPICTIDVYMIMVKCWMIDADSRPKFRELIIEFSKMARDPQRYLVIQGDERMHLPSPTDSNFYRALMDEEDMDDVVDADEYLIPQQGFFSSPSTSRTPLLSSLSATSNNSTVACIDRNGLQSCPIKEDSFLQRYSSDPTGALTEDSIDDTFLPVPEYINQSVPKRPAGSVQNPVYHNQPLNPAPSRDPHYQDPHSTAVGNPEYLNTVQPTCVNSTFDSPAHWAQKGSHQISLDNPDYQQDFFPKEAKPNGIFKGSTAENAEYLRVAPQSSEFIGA
Description: EGFR C797S enzyme inhibition activity (ADP-Glo kinase assay). It counts as biochemical. The following applies: purified enzyme 3 ng, ATP 5 μM, 25° C., 1 hour, luminescence; read-out: EGFR DTC Enzyme IC50. How it is done:
<Experimental Example 1> Evaluation of EGFR C797S Enzyme Inhibition Activity
The compounds according to the present invention were reacted together with purified human EGFR (d746-750/T790M/C797S) (668-end, SignalChem) enzyme and a specific substrate and evaluated for enzyme inhibitory activity as described below. The reaction buffer consisted of 40 mM Tris-HCl pH 7.4, 20 mM MgCl2, 0.5 mg/ml BSA, and 50 μM DTT, and all reactions of the test substances were performed in reaction buffers. The compounds were serially diluted in 12 steps from a 10 mM DMSO stock, and the enzyme activity was measured at the final compound concentrations of 10, 3, 1, 0.3, 0.1, 0.03, 0.01, 0.003, 0.001, 0.0003, 0.0001, and 0 μM. In the assay, human EGFR (d746-750/T790M/C797S) (3 ng) enzyme was reacted with purified ATP (5 μM) and enzyme substrate (0.2 μg) at 25° C. for 1 hour, and the enzyme activity was determined using the in vitro ADP-Glo™ kinase assay (Promega). The enzyme activity inhibition was measured via luminescence by reacting the enzyme activity reaction solution, ADP-Glo reaction solution, and enzyme activity detection solution in a 2:2:1 ratio. Based on the luminescence of the enzyme activity of the solvent control group that was not treated with the compound, the degree of the enzyme activity inhibition depending on the treatment concentration of each compound was calculated, wherein the concentration of each compound that inhibited the enzyme activity by 50% was determined as the IC50 (nM) value, which was obtained using GraphPad Prism 8.4.3 (GraphPad software Inc., San Diego).
Background: ADP-Glo turns the ADP formed in a reaction into a luminescent signal.

For orientation: IC50 means the concentration at which inhibition is half-maximal. Regarding `CO[C@H]1CCN(c2nccc(Nc3cc(NC(C)C)c(C(=O)Nc4cccc(N5CCN(C)CC5)c4)cn3)n2)C[C@H]1F` (relative stereo) [Example 41, 6-((2-(cis-3-fluoro-4-methoxypiperidin-1-yl)pyrimidin-4-yl)amino)-4-(isopropylamino)-N-(3-(4-methylpiperaizn-1-yl)phenyl)nicotinamide], the GI50 in experiment [1] is 500 to 5000 nM. Moreover, in experiment [2], the IC50 is under 50 nM.

Take `CC(C)Nc1cc(Nc2ccnc(-c3cnn(S(=O)(=O)C4CC4)c3)n2)ncc1C(=O)NCCCN(C)C` [Example 34, 6-((2-(1-(cyclopropylsulfonyl)-1H-pyrazol-4-yl)pyrimidin-4-yl)amino)-N-(3-(dimethylamino)pro-pyl)-4-(isopropylamino)nico-tinamide]: the GI50 in experiment [1] lay within 500 to 5000 nM. Besides, the concentration for half-maximal inhibition (IC50) in experiment [2] was under 50 nM.

In the case of `CC(C)Nc1cc(Nc2ccnc(-c3cnn(S(=O)(=O)C4CC4)c3)n2)ncc1C(=O)NC1CCN(S(C)(=O)=O)C1` (stereo not drawn) [Example 49, 6-((2-(1-(cyclopropylsulfonyl)-1H-pyrazol-4-yl)pyrimidin-4-yl)amino)-4-(isopropylamino)-N-(1-(methylsulfonyl)pyrro-lidin-3-yl)nicotinamide], the GI50 in experiment [1] fell in the range of 500 to 5000 nM. Besides, in experiment [2], the IC50 is under 50 nM.

Consider `COC(=O)CCNC(=O)c1cnc(Nc2ccnc(N3CC[C@H](OC)[C@H](F)C3)n2)cc1NC(C)C` (relative stereo) [Example 97, methyl 3-(6-((2-(cis-3-fluoro-4-methoxypiperidin-1-yl)pyrimidin-4-yl)amino)-4-(isopropylamino)nico-tinamido)propanoate], for which the GI50 in experiment [1] is 500 to 5000 nM. Further, the IC50 in experiment [2] was under 50 nM.

For `CC(C)Nc1cc(Nc2ccnc(-c3cnn(S(=O)(=O)C4CC4)c3)n2)ncc1C(=O)N1CC2(C1)CN(S(C)(=O)=O)C2` [Example 66, (6-((2-(1-(cyclopropylsulfonyl)-1H-pyrazol-4-yl)pyrimidin-4-yl)amino)-4-(isopropylamino)pyri-din-3-yl)(6-(methylsulfonyl)-2,6-diazaspiro[3.3]heptan-2-yl)methanone], in experiment [1], the GI50 lay within 500 to 5000 nM. In experiment [2], the IC50 is under 50 nM.

Turning to `CC(C)Nc1cc(Nc2ccnc(-c3cnn(S(=O)(=O)C4CC4)c3)n2)ncc1C(=O)N1CC(C#N)C1` [Example 9, 1-(6-((2-(1-(cyclopropylsulfonyl)-1H-pyrazol-4-yl)pyrimidin-4-yl)amino)-4-(isopropylamino)nico-tinoyl)azetidine-3-carbonitrile], in experiment [1], the GI50 lay in the range of 500 to 5000 nM. The IC50 in experiment [2] was under 50 nM.

Take `CO[C@H]1CCN(c2nccc(Nc3cc(NC(C)C)c(C(=O)N4CC(C#N)C4)cn3)n2)C[C@H]1F` (relative stereo) [Example 17, 1-(6-((2-(cis-3-fluoro-4-methoxypiperidin-1-yl)pyrimidin-4-yl)amino)-4-(isopropylamino)nico-tinoyl)azetidine-3-carbonitrile]: in experiment [1], the GI50 was 500 to 5000 nM. The IC50 in experiment [2] is under 50 nM.

Consider `CC(C)Nc1cc(Nc2ccnc(-c3cnn(S(=O)(=O)C4CC4)c3)n2)ncc1C(=O)NCC(F)(F)F` [Example 78, 6-((2-(1-(cyclopropylsulfonyl)-1H-pyrazol-4-yl)pyrimidin-4-yl)amino)-4-(isopropylamino)-N-(2,2,2-trifluoroethyl)nicotin-amide], for which, in experiment [1], the GI50 was in the range of 500 to 5000 nM. Moreover, the half-maximal inhibitory concentration (IC50) in experiment [2] is under 50 nM.

Take `CC(C)Nc1cc(Nc2ccnc(N3CCOCC3)n2)ncc1C(=O)N1CC(CS(C)(=O)=O)C1` [Example 10, (4-(isopropylamino)-6-((2-morpholinopyrimidin-4-yl)amino)pyridin-3-yl)(3-((methylsulfonyl)meth-yl)azetidin-1-yl)methanone]: the GI50 in experiment [1] was in the range of 500 to 5000 nM. Also, in experiment [2], the IC50 is under 50 nM.

Consider `C[C@H]1CCOc2c(cnn2C)-c2nccc(n2)Nc2cc(c(C(=O)NC(CCN(C)C)c3ccccc3)cn2)N1` (stereo partly drawn) [Example 120, (6S)-N-(3-(dimethylamino)-1-phenylpropyl)-1^1,6-dimethyl-1^1H-9-oxa-3,5-diaza-2(2,4)-pyrimidina-4(2,4)-pyridina-1(4,5)-pyrazolacyclo-nonaphane-4^5-carboxamide], for which the GI50 in experiment [1] is 500 to 5000 nM. Besides, the IC50 in experiment [2] was under 50 nM.

Turning to `CO[C@H]1CCN(c2nccc(Nc3cc(NC(C)C)c(C(=O)Nc4cc(N5CCN(C)CC5)cc(C(C)(C)C#N)c4)cn3)n2)C[C@H]1F` (relative stereo) [Example 42, N-(3-(2-cyanopropan-2-yl)-5-(4-methylpiperazin-1-yl)phenyl)-6-((2-(cis-3-fluoro-4-methoxypiperidin-1-yl)pyrimidin-4-yl)amino)-4-(isopropylamino)nico-tinamide], in experiment [1], the GI50 lay within 500 to 5000 nM. In addition, the IC50 in experiment [2] is under 50 nM.

With `CC(C)Nc1cc(Nc2ccnc(-c3cnn(S(=O)(=O)C4CC4)c3)n2)ncc1C(=O)N1C[C@H](CS(C)(=O)=O)[C@H]1C` [Example 71, (6-((2-(1-(cyclopropylsulfonyl)-1H-pyrazol-4-yl)pyrimidin-4-yl)amino)-4-(isopropylamino)pyri-din-3-yl)((2R,3S)-2-methyl-3-((methylsulfonyl)meth-yl)azetidin-1-yl)methanone], the GI50 in experiment [1] fell in the range of 500 to 5000 nM. In experiment [2], the IC50 was under 50 nM.

For `CC(C)Nc1cc(Nc2ccnc(-c3cnn(S(=O)(=O)C4CC4)c3)n2)ncc1C(=O)NCC1CCN(C)CC1` [Example 51, 6-((2-(1-(cyclopropylsulfonyl)-1H-pyrazol-4-yl)pyrimidin-4-yl)amino)-4-(isopropylamino)-N-((1-methylpiperidin-4-yl)methyl)nicotinamide], the GI50 in experiment [1] lay within 500 to 5000 nM. The IC50 in experiment [2] is under 50 nM.

Regarding `CO[C@H]1CCN(c2nccc(Nc3cc(NC(C)C)c(C(=O)NCCC(F)(F)F)cn3)n2)C[C@H]1F` (relative stereo) [Example 98, 6-((2-(cis-3-fluoro-4-methoxypiperidin-1-yl)pyrimidin-4-yl)amino)-4-(isopropylamino)-N-(3,3,3-trifluoropropyl)nico-tinamide], the GI50 in experiment [1] was under 500 nM. In addition, the IC50 in experiment [2] is under 50 nM.

Regarding `CC(C)Nc1cc(Nc2ccnc(-c3cnn(S(=O)(=O)C4CC4)c3)n2)ncc1C(=O)NCc1ccc(F)cc1` [Example 61, 6-((2-(1-(cyclopropylsulfonyl)-1H-pyrazol-4-yl)pyrimidin-4-yl)amino)-N-(4-fluorobenzyl)-4-(isopropylamino)nico-tinamide], the GI50 in experiment [1] lay within 500 to 5000 nM. Moreover, the IC50 in experiment [2] is 50 to 500 nM.

As for `COC(=O)CCNC(=O)c1cnc(Nc2ccnc(-c3cnn(S(=O)(=O)C4CC4)c3)n2)cc1NC(C)C` [Example 50, methyl 3-(6-((2-(1-(cyclopropylsulfonyl)-1H-pyrazol-4-yl)pyrimidin-4-yl)amino)-4-(isopropylamino)nico-tinamido)propanoate], in experiment [1], the GI50 fell in the range of 500 to 5000 nM. In experiment [2], the half-maximal inhibitory concentration (IC50) is under 50 nM.

On to `CC(C)Nc1cc(Nc2ccnc(-c3cnn(S(=O)(=O)C4CC4)c3)n2)ncc1C(=O)NCCN1CCCC1` [Example 68, 6-((2-(1-(cyclopropylsulfonyl)-1H-pyrazol-4-yl)pyrimidin-4-yl)amino)-4-(isopropylamino)-N-(2-(pyrrolidin-1-yl)ethyl)nicotinamide], for which the GI50 in experiment [1] fell in the range of 500 to 5000 nM. Moreover, in experiment [2], the IC50 is under 50 nM.

With `C[C@H]1CCOc2c(cnn2C)-c2nccc(n2)Nc2cc(c(C(=O)NCC#N)cn2)N1` [Example 80, (S)-N-(cyanomethyl)-1^1,6-dimethyl-1^1H-9-oxa-3,5-diaza-2(2,4)-pyrimidina-4(2,4)-pyridina-1(4,5)-pyrazolacyclo-nonaphane-4^5-carboxamide], the GI50 in experiment [1] was under 500 nM. In addition, the IC50 in experiment [2] is under 50 nM.
